Here are results for nine compounds from US7022710B2, “A1 adenosine receptor antagonists” (CV Therapeutics, Inc., priority 2003, dated 2006).

The target of one assay is T1, human A2B AdoR (Homo sapiens, UniProt P29275).
T1 construct: expressed in transfected cells; host or cells: HEK-293 (HEK-A2B), membrane preparation
T1 sequence (P29275 1-332): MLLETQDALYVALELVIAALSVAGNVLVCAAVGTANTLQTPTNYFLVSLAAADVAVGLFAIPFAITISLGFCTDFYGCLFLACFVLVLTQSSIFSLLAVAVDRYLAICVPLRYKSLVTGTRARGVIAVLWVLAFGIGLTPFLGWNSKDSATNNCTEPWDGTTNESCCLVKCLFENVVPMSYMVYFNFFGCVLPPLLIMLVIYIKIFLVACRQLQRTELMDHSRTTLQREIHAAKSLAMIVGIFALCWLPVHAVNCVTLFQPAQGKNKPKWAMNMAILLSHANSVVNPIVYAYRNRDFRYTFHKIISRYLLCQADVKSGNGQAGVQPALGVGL
The experiment in a line: Adenosine receptor radioligand binding assay, A2B. Conditions: competition with 3H-ZM241385, HEK-A2B cell membranes. The procedure: (§1) The cDNAs for human A1, A2A, A2B or A3 AdoRs were prepared by RT-PCR from total RNA of human cells or tissues and sequenced on both strands. The expression vector containing each of these cDNAs and a second vector containing a neomycin or puromycin-resistance gene were introduced to HEK-293 or CHO cells by Lipofectin-Plus (Life Technology). Colonies were selected by growing transfected cells in the presence of neomycin or puromycin. Stably transfected cells were maintained in Dulbecco's modified Eagle's medium (DMEM) or F-12 medium with 10% fetal bovine serum, 100 μg/ml penicillin, 100 μg/ml streptomycin and appropriate concentrations of neomycin or puromycin. These stably transfected cells were referred to as HEK-“AdoR” or CHO-“AdoR” depending on the receptors that they express. The cell lines used routinely were CHO-A1, HEK-A2A, HEK-A2B.and CHO-A3 cells. In addition, hamster DDT1 MF-2 cells that express endogenous A1 AdoRs were also used to determine the binding activities of compounds for A1 AdoRs.
(§2) Monolayers of transfected cells or DDT1 MF-2 were washed with phosphate buffered saline (PBS) and harvested in a buffer containing 10 mM HEPES (pH 7.4), 10 mM EDTA and protease inhibitors. The cells were homogenized in polytron for 1 minute at setting 4 and centrifuged at 29000 g for 15 minutes at 4° C. The cell pellets were washed with a buffer containing 10 mM HEPES (pH7.4), 1 mM EDTA and protease inhibitors, and were resuspended in the same buffer supplemented with 10% sucrose. Frozen aliquots were kept at −80° C.
(§3) The affinities of compounds for A1, A2A, A2B or A3 AdoRs were determined in competition studies using radioligands such as ^3H-CPX (A1 antagonist), or ^3H-CCPA (A1 agonist), ^3H-ZM241385 (A2A antagonist) or ^3H-CGS21680 (A2A agonist), ^3H-ZM241385 (A2B antagonist) or ^125I-AB-MECA (A3 agonist) and membranes of corresponding cells. For example, to determine the affinity for A1 AdoRs, the competition assays were started by mixing 0.5–1 nM ^3H-CPX with various concentrations of test compounds and 25–100 μg membrane proteins of CHO-A1 or DDT1 MF-2 in TE buffer (50 mM Tris and 1 mM EDTA) supplemented with 1 U/ml adenosine deaminase. The assays were incubated for 60–90 minutes, stopped by filtration onto GF/B filter plates using Packard Harvester and washed four times with ice-cold TM buffer (10 mM Tris, 1 mM MgCl2, pH 7.4). The amounts of radioligands that bound to the GF/B filter plates were determined by scintillation counting. Nonspecific binding was determined in the presence of 1–10 μM of cold ligands. Bmax and KD values were calculated using GraphPad software.

Another assay has as its target T2, human A1 AdoR (UniProt P30542).
T2 sequence (P30542 1-326): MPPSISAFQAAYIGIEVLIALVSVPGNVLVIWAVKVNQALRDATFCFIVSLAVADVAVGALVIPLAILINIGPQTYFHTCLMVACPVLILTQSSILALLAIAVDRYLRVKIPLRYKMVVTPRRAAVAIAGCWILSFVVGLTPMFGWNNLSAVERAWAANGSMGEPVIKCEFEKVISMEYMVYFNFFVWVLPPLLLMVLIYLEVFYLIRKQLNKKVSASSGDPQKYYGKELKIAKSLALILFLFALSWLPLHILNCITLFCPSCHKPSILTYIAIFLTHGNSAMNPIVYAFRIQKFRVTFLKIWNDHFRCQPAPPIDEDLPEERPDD
The experiment in a line: Adenosine receptor radioligand binding assay, A1. Conditions: competition with 0.5–1 nM 3H-CPX, membranes of CHO-A1 or DDT1 MF-2 (hamster, endogenous A1). How it is done: as §1, §2, §3

Broadly, the Ki is a measure of affinity in units of concentration, obtained from inhibition or displacement. Read a low Ki as a stronger hold on the target. For the compound `CCn1c(-n2cccn2)nc2c(N)nc(NCc3ccccc3)nc21` [(6-amino-9-ethyl-8-pyrazolylpurin-2-yl)benzylamine], the Ki at human A2B AdoR was found to be 1000 nM; on human A1 AdoR it was 15 nM.
Turning to “(4-{[(6-amino-9-propyl-8-pyrazolylpurin-2-yl)amino]methyl}phenyl)methan-1-ol”, the Ki is 7000 nM on human A2B AdoR and 1790 nM at human A1 AdoR.
For “(6-amino-9-propyl-8-pyrazolylpurin-2-yl)(2-phenylethyl)amine”, in that order: 500 nM and 113 nM.
Turning to “(6-amino-9-propyl-8-pyrazolylpurin-2-yl)[2-(2,5-dimethoxyphenyl)ethyl]amine”, the inhibition constant (Ki) at human A2B AdoR was 1680 nM; on human A1 AdoR, 182 nM.
Regarding “(6-amino-9-propyl-8-pyrazolylpurin-2-yl)[2-(2-chlorophenyl)ethyl]amine”, the inhibition constant Ki at human A2B AdoR was determined as 3640 nM; at human A1 AdoR, 382 nM.
Regarding “(6-amino-9-propyl-8-pyrazolylpurin-2-yl)[2-(3-fluorophenyl)ethyl]amine”, the Ki came out at 160 nM on human A2B AdoR and 28 nM on human A1 AdoR.
As to “(6-amino-9-propyl-8-pyrazolylpurin-2-yl)[2-(4-chlorophenyl)ethyl]amine”, the Ki stood at 5000 nM at human A2B AdoR and 1090 nM at human A1 AdoR.
On to “(6-amino-9-propyl-8-pyrazolylpurin-2-yl)[2-(4-fluorophenyl)ethyl]amine”, for which the Ki at human A2B AdoR is 2300 nM; at human A1 AdoR, 66 nM.
Turning to “{[3-(aminomethyl)phenyl]methyl}(6-amino-9-propyl-8-pyrazolylpurin-2-yl)amine”, the Ki is 7000 nM at human A2B AdoR and 408 nM on human A1 AdoR.
